# Literature values, collected in US8758826B2, “Cannabinoid receptor binding agents, compositions, and methods” (Wet Inc., priority 2011, dated 2014).
# Tests used:
# CB2 = CB2 (Homo sapiens, UniProt P34972); details: higher for CB2 than CB1
# [1] = test system: rats with a partial urethral obstruction
# histamine-induced itch = details: topically applied
# keratinocyte = details: in vitro and in situ
# Sequence of CB2 (P34972 whole entry, species assumed): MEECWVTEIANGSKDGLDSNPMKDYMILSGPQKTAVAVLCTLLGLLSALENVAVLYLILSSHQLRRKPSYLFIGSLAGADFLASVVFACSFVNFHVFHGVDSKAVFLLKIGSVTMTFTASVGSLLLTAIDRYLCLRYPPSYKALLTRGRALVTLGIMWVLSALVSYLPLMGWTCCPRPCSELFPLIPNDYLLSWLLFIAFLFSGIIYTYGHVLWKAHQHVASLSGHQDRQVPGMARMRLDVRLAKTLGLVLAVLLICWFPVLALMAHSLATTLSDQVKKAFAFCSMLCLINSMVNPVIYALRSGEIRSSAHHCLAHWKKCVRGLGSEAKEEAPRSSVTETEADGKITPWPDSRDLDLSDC
smiles,measurement,setting,value
CCCCCc1cc(O)c2c(c1)OC(C)(C)c1ccc(C)cc1-2 [Cannabinol],Binding affinity to CB2 than to CB1,CB2,10 fold
CCCCCCC(C)(C)c1cc(O)c([C@H]2CC(=O)[C@H]3C[C@@H]2C3(C)C)c(OC(=O)/C=C/C(=O)O)c1 [Cannabinor],Bladder emptying,[1],improves bladder emptying
CCCCCCC(C)(C)c1cc(O)c2c(c1)OC(C)(C)[C@@H]1CC=C(CO)C[C@@H]21 [HU-210],Histamine-induced itch,histamine-induced itch,capable of reducing histamine-induced itch
Cc1c(C(=O)NN2CCCCC2)nn(-c2ccc(Cl)cc2Cl)c1-c1ccc(Cl)cc1 [SR141716],Sperm motility,human sperm,enhance sperm motility
"CCCCCc1cc(O)c2c(c1)OC(C)(C)[C@@H]1CCC(C)=C[C@@H]21 [THC, Δ9-tetrahydrocannabinol]",Action at CB1,CB1,agonist
same,Melanin content of the hair follicle,hair follicle,significantly and dose-dependently suppressed
same,Hair shaft elongation,human hair follicle,dose-dependently inhibited
same,Intraepithelial apoptosis and premature HF regression (catagen),human hair follicle,induced
same,Proliferation of hair matrix keratinocytes,human hair follicle,dose-dependently inhibited
"CCCCC/C=C\C/C=C\C/C=C\C/C=C\CCCC(=O)NCCO [anandamide, N-arachidonoylethanolamide]",Cell death,keratinocyte,induces cell death
same,Keratinocyte proliferation,keratinocyte,markedly suppresses
same,Hair shaft elongation,human hair follicle,dose-dependently inhibited
same,Intraepithelial apoptosis and premature HF regression (catagen),human hair follicle,induced
same,Proliferation of hair matrix keratinocytes,human hair follicle,dose-dependently inhibited
COc1cc(/C=C/C(=O)CC(=O)/C=C/c2ccc(O)c(OC)c2)ccc1O [curcumin],Apoptosis in melanoma cells,melanoma cells,induce apoptosis
same,Proliferation of melanoma cells,melanoma cells,suppress proliferation
